Measurements as given in US9358247B2, “Methods and compositions for promoting activity of anti-cancer therapies” (Oncology Research International Limited, priority 2006, dated 2016).

Assays:
Format in all cases: cell-based, human
A549 cell line = assay: Cancer cell growth inhibition, SRB dye assay (single agents and 50:50 IC50 mixtures); settings: Homo sapiens, 144 h, Example 4, value used to make up 50:50 IC50 mixtures, read-out: IC50 values used in assay
Description: Cancer cells were seeded the day before application of drug in triplicate or quadruplicate in 96-well plates, allowed to grow in the presence of drug for 6 days before cell growth relative to untreated control wells was determined with a dye assay.
Cells were seeded in triplicate or quadruplicate at 3-4,000 per microtitre well in 90 μl of RPMI culture medium/10% foetal calf serum/penicillin, streptomycin mix, treated with 10 μl of drug (prepared in a dilution plate at 10× concentration required), and allowed to grow until the controls were nearly confluent (6 days).
SRB: Plates were washed with PBS, fixed with methylated spirits, washed with tap water and stained with 50 μL/well of SRB solution (sulforhodamine, 0.4% in 1% acetic acid), followed by washing with tap water and 1% acetic acid, solubilisation in Tris and absorbance read at 564 nm in an ELISA reader.
Data was collected using ELISA plate reader software—SOFTmax PRO3.1.2, then imported into EXCEL. The mean and SD of replicates were calculated as a % of control, after subtraction of the blank value (wells with no cells). A graph was plotted of % control vs dose of agent and IC50 (half maximal inhibitory concentration) values determined.
(§1) Tumour cells were seeded in duplicate in 96-well plates at 2-5,000 per microtitre well containing RPMI culture medium/10% foetal calf serum. The cells were allowed to grow until the controls were nearly confluent after 5-6 days. Plates were then washed with PBS, fixed in ethanol and stained with 50 μL/well of SRB solution (sulforhodamine, 0.4% in 1% acetic acid), followed by washing with 1% acetic acid and solubilisation in Tris. The absorbance was read at 564 nm using an ELISA reader.
(§2) The IC50, or concentration required to inhibit cell growth by 50%, was determined from the percentage inhibition versus concentration data using the probit calculation methods of Finney (Finney D J (1971). Probit Analysis. 3rd Edition. Cambridge University Press).
The inhibitory data from each mixture was used to determine an IC50 of IC50 value, where the concentrations used were the Multiplying Factor values. In order to determine the actual IC50 contribution of each component in the two-component mixture, the IC50 of IC50 value was multiplied by the IC50 of the individual component. This can then be used to determine the reduction in IC50 contribution (ie, reduction in dose) of the chemotherapeutic agent due to the presence of the steroid saponin in the mixture. A simpler way of determining the reduction in dose is to use the following simple formula: […]

MCF7 cell line = assay: as above
Description: Cancer cells were seeded the day before application of drug in triplicate or quadruplicate in 96-well plates, allowed to grow in the presence of drug for 6 days before cell growth relative to untreated control wells was determined with a dye assay. Cells were seeded in triplicate or quadruplicate at 3-4,000 per microtitre well in 90 μl of RPMI culture medium/10% foetal calf serum/penicillin, streptomycin mix, treated with 10 μl of drug (prepared in a dilution plate at 10× concentration required), and allowed to grow until the controls were nearly confluent (6 days). SRB: Plates were washed with PBS, fixed with methylated spirits, washed with tap water and stained with 50 μL/well of SRB solution (sulforhodamine, 0.4% in 1% acetic acid), followed by washing with tap water and 1% acetic acid, solubilisation in Tris and absorbance read at 564 nm in an ELISA reader. Data was collected using ELISA plate reader software—SOFTmax PRO3.1.2, then imported into EXCEL. The mean and SD of replicates were calculated as a % of control, after subtraction of the blank value (wells with no cells). A graph was plotted of % control vs dose of agent and IC50 (half maximal inhibitory concentration) values determined. […] The cells were allowed to grow until the controls were nearly confluent after 5-6 days. Plates were then washed with PBS, fixed in ethanol and stained with 50 μL/well of SRB solution (sulforhodamine, 0.4% in 1% acetic acid), followed by washing with 1% acetic acid and solubilisation in Tris. The absorbance was read at 564 nm using an ELISA reader. […] Cambridge University Press). […] The inhibitory data from each mixture was used to determine an IC50 of IC50 value, where the concentrations used were the Multiplying Factor values. In order to determine the actual IC50 contribution of each component in the two-component mixture, the IC50 of IC50 value was multiplied by the IC50 of the individual component. This can then be used to determine the reduction in IC50 contribution (ie, reduction in dose) of the chemotherapeutic agent due to the presence of the steroid saponin in the mixture. A simpler way of determining the reduction in dose is to use the following simple formula: […]

[1] = system: PC3, DU145, A549 and HT29 cell lines; assay: Cancer cell growth inhibition, IC50 values used in assay for four cell lines (Example 5); settings: Homo sapiens, value used to make up 50:50 IC50 mixtures
Description: as §1, §2
The cell seeding and ELISA plate methodology of Example 2 were used for determining inhibition of four cancer cell lines. IC50 values were determined for the steroid saponins dioscin, deltonin and prosapogenin A, and their mixtures with cisplatin, docetaxel, doxorubicin and vincristine, using PC3, DU145, A549 and HT29 cell lines.

Question: With `C[C@@H]1CC[C@@]2(OC1)O[C@H]1C[C@H]3[C@@H]4CC=C5C[C@@H](O[C@@H]6O[C@H](CO)[C@@H](O[C@@H]7O[C@H](CO)[C@@H](O)[C@H](O)[C@H]7O)[C@H](O)[C@H]6O[C@@H]6O[C@@H](C)[C@H](O)[C@@H](O)[C@H]6O)CC[C@]5(C)[C@H]4CC[C@]3(C)[C@H]1[C@@H]2C` [Deltonin, diosgenin Rha2, [Glc4], Glc] as the compound, how does the IC50 (A549 cell line) read?
Answer: 1 µM

Question: And the “Vincristine Dose Reduction” value (MCF7 cell line; 50:50 IC50 mixture vs vincristine alone, Example 3)?
Answer: consistent reduction in dosage

Question: What about the IC50 (MCF7 cell line; Homo sapiens, 144 h, Example 3, value used to make up 50:50 IC50 mixtures, read-out: IC50 values used in assay) of the same compound?
Answer: 1 µM

Question: What about the IC50 [1] of the same compound?
Answer: 1 µM
